Measured values: the supplement of paper PMC11061612

Key:
Assay in all cases: Bliss excess, mean over the matrix (fraction); higher = more synergy
[1] = test system: COLO-679 (Melanoma)
Outline: (§1)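 Bliss excess equals the observed combination effect minus the expected value EA + EB − EA·EB, where EA and EB are the effects of each agent alone. Combination Emax is the second-highest inhibition within the matrix. Inhibition was scaled from CellTiter-Glo 2.0 luminescence, with 0 set by vehicle wells and 1 by blank wells, after 72 hours of two-drug dosing of cells plated in 1536-well plates.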

[2] = test system: ML-2 (Acute Myeloid Leukemia)
Outline: as §1

[3] = test system: MDA-MB-453 (Breast Carcinoma)
Outline: as §1

[4] = test system: MOLT-4 (T-Lymphoblastic Leukemia)
Outline: as §1

[5] = test system: MV-4-11 (Acute Myeloid Leukemia)
Outline: as §1

[6] = test system: NCI-H1993 (Lung Adenocarcinoma)
Outline: as §1

[7] = test system: SW872 (Other Solid Carcinomas)
Outline: as §1

[8] = test system: SNU-387 (Hepatocellular Carcinoma)
Outline: as §1

[9] = test system: A4-Fuk (B-Lymphoblastic Leukemia)
Outline: as §1

[10] = test system: SK-N-AS (Neuroblastoma)
Outline: as §1

[11] = test system: OE33 (Esophageal Adenocarcinoma)
Outline: as §1

[12] = test system: HAL-01 (B-Lymphoblastic Leukemia)
Outline: as §1

[13] = test system: Ca-Ski (Cervical Carcinoma)
Outline: as §1

| SMILES | Bliss excess [1] | Bliss excess [2] | Bliss excess [3] | Bliss excess [4] | Bliss excess [5] | Bliss excess [6] | Bliss excess [7] | Bliss excess [8] | Bliss excess [9] | Bliss excess [10] | Bliss excess [11] | Bliss excess [12] | Bliss excess [13] |
| --- | --- | --- | --- | --- | --- | --- | --- | --- | --- | --- | --- | --- | --- |
| C=CCn1c(=O)c2cnc(Nc3ccc(N4CCN(C)CC4)cc3)nc2n1-c1cccc(C(C)(C)O)n1 [AZD1775] + CCc1c2c(nc3ccc(O)cc13)-c1cc3c(c(=O)n1C2)COC(=O)[C@]3(O)CC [SN-38] (first compound max 1 µM, partner max 0.3 µM) | -0.171 | -0.0033 | -0.0113 | 0.0188 | -0.0281 | 0.0354 | -0.0641 | -0.0303 | -0.0617 | 0.0032 | -0.0694 | -0.0249 | 0.0285 |
| C=CCn1c(=O)c2cnc(Nc3ccc(N4CCN(C)CC4)cc3)nc2n1-c1cccc(C(C)(C)O)n1 [AZD1775] + Nc1ccn([C@@H]2O[C@H](CO)[C@@H](O)C2(F)F)c(=O)n1 [Gemcitabine] (first compound max 1 µM, partner max 0.3 µM) | -0.067 | 0.0482 | -0.0309 | 0.0162 | 0.0238 | -0.0021 | 0.0462 | -0.0035 | 0.009 | -0.0254 | -0.0157 | -0.0026 | 0.0644 |
| CN(CCO)CC[C@H](CSc1ccccc1)Nc1ccc(S(=O)(=O)NC(=O)c2ccc(N3CCC([C@@H](O)c4ccccc4-c4ccc(Cl)cc4)CC3)cc2)cc1S(=O)(=O)C(F)(F)F [AZD4320] + CS(=O)(=O)CCNCc1ccc(-c2ccc3ncnc(Nc4ccc(OCc5cccc(F)c5)c(Cl)c4)c3c2)o1 [Lapatinib] (first compound max 1 µM, 7x7, partner max 10 µM) | -0.106 | 0.0678 | -0.0554 | 0.0886 | 0.018 | 0.0682 | 0.0097 | 0.0496 | -0.0065 | -0.0397 | 0.0519 | 0.193 | 0.127 |
| Cc1c2c(nn1C)CSCc1cc(n(C)n1)CSc1cc(c3ccccc3c1)OCCCc1c(C(=O)O)n(C)c3c-2c(Cl)ccc13 [AZD5991] + CC(=O)O[C@H]1C(=O)[C@@]2(C)[C@H]([C@H](OC(=O)c3ccccc3)[C@]3(O)C[C@H](OC(=O)[C@H](O)[C@@H](NC(=O)c4ccccc4)c4ccccc4)C(C)=C1C3(C)C)[C@]1(OC(C)=O)CO[C@@H]1C[C@@H]2O [Paclitaxel] (first compound max 1 µM, 7x7, partner max 3 µM) | 0.0314 | 0.0157 | 0.231 | 0.0219 | 0.0129 | -0.037 | 0.018 | 0.0019 | -0.0069 | -0.0065 | -0.0386 | -0.0179 | 0.0422 |
| Cc1c2c(nn1C)CSCc1cc(n(C)n1)CSc1cc(c3ccccc3c1)OCCCc1c(C(=O)O)n(C)c3c-2c(Cl)ccc13 [AZD5991] + CS(=O)(=O)CCNCc1ccc(-c2ccc3ncnc(Nc4ccc(OCc5cccc(F)c5)c(Cl)c4)c3c2)o1 [Lapatinib] (first compound max 1 µM, 7x7, partner max 10 µM) | -0.149 | 0.0008 | 0.0116 | 0.0254 | 0.0343 | – | 0.0129 | -0.028 | 0.0199 | -0.0363 | -0.042 | 0.162 | 0.0164 |
| Cc1c2c(nn1C)CSCc1cc(n(C)n1)CSc1cc(c3ccccc3c1)OCCCc1c(C(=O)O)n(C)c3c-2c(Cl)ccc13 [AZD5991] + Nc1ccn([C@@H]2O[C@H](CO)[C@@H](O)C2(F)F)c(=O)n1 [Gemcitabine] (first compound max 1 µM, 7x7, partner max 0.3 µM) | -0.0703 | 0.0116 | 0.0145 | 0.0224 | 0.0035 | -0.0064 | -0.0066 | -0.0021 | -0.0182 | 0.0183 | 0.0018 | 0.0025 | 0.0354 |
| C[C@@H]1COCCN1c1cc(C2([S@](C)(=N)=O)CC2)nc(-c2ccnc3[nH]ccc23)n1 [AZD6738] + C1CC(C1)(C(=O)[O-])C(=O)[O-].N.N.[Pt+2] [Carboplatin] (first compound max 10 µM, 7x7, partner max 10 µM) | -0.0944 | -0.0111 | -0.0327 | -0.013 | -0.0339 | -0.0211 | 0.0087 | -0.0308 | -0.0571 | -0.0538 | -0.0416 | -0.0435 | 0.0041 |
| C[C@@H]1COCCN1c1cc(C2([S@](C)(=N)=O)CC2)nc(-c2ccnc3[nH]ccc23)n1 [AZD6738] + Nc1ccn([C@@H]2O[C@H](CO)[C@@H](O)C2(F)F)c(=O)n1 [Gemcitabine] (first compound max 10 µM, 7x7, partner max 0.3 µM) | -0.0611 | 0.108 | -0.0251 | 0.0315 | 0.0067 | -0.0098 | 0.0769 | 0.0597 | -0.0486 | 0.0469 | -0.0518 | -0.0031 | 0.0982 |
| C[C@@H](Nc1cc(F)cc(F)c1)c1cc(C(=O)N(C)C)cc2c(=O)cc(N3CCOCC3)oc12 [AZD8186] + C1CN(CCC1(C(=O)N[C@@H](CCO)C2=CC=C(C=C2)Cl)N)C3=NC=NC4=C3C=CN4 [AZD5363] (first compound max 10 µM, 7x7, partner max 10 µM) | -0.12 | -0.0217 | 0.0219 | -0.0083 | 0.0103 | 0.0154 | 0.0068 | -0.0959 | -0.0183 | -0.0294 | -0.0329 | -0.0657 | -0.0032 |
| C[C@@H](Nc1cc(F)cc(F)c1)c1cc(C(=O)N(C)C)cc2c(=O)cc(N3CCOCC3)oc12 [AZD8186] + CC(=O)c1c(C)c2cnc(Nc3ccc(N4CCNCC4)cn3)nc2n(C2CCCC2)c1=O [Palbociclib] (first compound max 10 µM, 7x7, partner max 10 µM) | -0.0735 | 0.103 | 0.0491 | 0.0712 | 0.0769 | 0.0847 | 0.0874 | -0.0459 | 0.138 | 0.0334 | 0.0115 | -0.0022 | -0.0285 |
| C[C@@H](Oc1cc(-c2cnn(C3CCNCC3)c2)cnc1N)c1c(Cl)ccc(F)c1Cl [Crizotinib] + CC1=C(C(=CC=C1)Cl)NC(=O)C2=CN=C(S2)NC3=CC(=NC(=N3)C)N4CCN(CC4)CCO [Dasatinib] (first compound max 10 µM, 7x7, partner max 2 µM) | -0.0604 | -0.0165 | -0.0494 | -0.0209 | 0.0161 | -0.0147 | 0.041 | 0.0371 | -0.0089 | -0.0164 | 0.0828 | -0.0172 | 0.0454 |
| C[C@@H](Oc1cc(-c2cnn(C3CCNCC3)c2)cnc1N)c1c(Cl)ccc(F)c1Cl [Crizotinib] + Cn1cnc2c(F)c(Nc3ccc(Br)cc3Cl)c(C(=O)NOCCO)cc21 [Selumetinib] (first compound max 10 µM, 7x7, partner max 10 µM) | -0.0369 | -0.0083 | -0.0374 | -0.0843 | -0.0232 | 0.0034 | -0.0107 | 0.0212 | -0.0021 | -0.0118 | -0.0199 | -0.0267 | 0.0464 |
| CS(=O)(=O)CCNCc1ccc(-c2ccc3ncnc(Nc4ccc(OCc5cccc(F)c5)c(Cl)c4)c3c2)o1 [Lapatinib] + Cn1cnc2c(F)c(Nc3ccc(Br)cc3Cl)c(C(=O)NOCCO)cc21 [Selumetinib] (first compound max 10 µM, 7x7, partner max 10 µM) | -0.116 | -0.151 | -0.0421 | 0.0852 | 0.0464 | 0.0118 | 0.0006 | 0.0212 | -0.045 | 0.0034 | -0.0143 | 0.0997 | -0.0185 |
| O=C(c1cc(Cc2n[nH]c(=O)c3ccccc23)ccc1F)N1CCN(C(=O)C2CC2)CC1 [Olaparib] + CC1(C)CCC(CN2CCN(c3ccc(C(=O)NS(=O)(=O)c4ccc(NCC5CCOCC5)c([N+](=O)[O-])c4)c(Oc4cnc5[nH]ccc5c4)c3)CC2)=C(c2ccc(Cl)cc2)C1 [Venetoclax] (first compound max 10 µM, 7x7, partner max 1 µM) | -0.0643 | 0.115 | -0.0323 | 0.124 | 0.0475 | -0.0397 | -0.023 | -0.0285 | -0.0118 | -0.031 | -0.0457 | 0.122 | -0.0069 |
| O=C(c1cc(Cc2n[nH]c(=O)c3ccccc23)ccc1F)N1CCN(C(=O)C2CC2)CC1 [Olaparib] + CN(CC[C@H](CSC1=CC=CC=C1)NC2=C(C=C(C=C2)S(=O)(=O)NC(=O)C3=CC=C(C=C3)N4CCC(CC4)[C@H](C5=CC=CC=C5C6=CC=C(C=C6)Cl)O)S(=O)(=O)C(F)(F)F)CCO [AZD4320] (first compound max 10 µM, 7x7, partner max 1 µM) | -0.0667 | 0.0877 | -0.0342 | 0.0581 | -0.0086 | -0.0405 | -0.0189 | -0.0863 | -0.0428 | -0.0291 | -0.037 | 0.0353 | 0.0083 |
| O=C(c1cc(Cc2n[nH]c(=O)c3ccccc23)ccc1F)N1CCN(C(=O)C2CC2)CC1 [Olaparib] + COc1nnc2ccc(N3CCC(c4ccc(OCCN5CCN(C)C(=O)[C@H]5C)cc4)CC3)nn12 [AZD5153] (first compound max 10 µM, 7x7, partner max 1 µM) | -0.0654 | -0.0153 | -0.0483 | 0.023 | 0.008 | -0.0529 | 0.0202 | -0.0768 | -0.0412 | -0.0662 | -0.057 | 0.007 | -0.0179 |
| O=C(c1cc(Cc2n[nH]c(=O)c3ccccc23)ccc1F)N1CCN(C(=O)C2CC2)CC1 [Olaparib] + Cc1c2c(nn1C)CSCc1cc(n(C)n1)CSc1cc(c3ccccc3c1)OCCCc1c(C(=O)O)n(C)c3c-2c(Cl)ccc13 [AZD5991] (first compound max 10 µM, 7x7, partner max 1 µM) | -0.0555 | 0.0318 | -0.0038 | 0.0336 | 0.0735 | -0.0275 | -0.0377 | -0.0935 | -0.0387 | -0.0347 | -0.0543 | -0.0229 | -0.0275 |
| Cc1nc(-c2cn3c(n2)-c2ccc(-c4cnn(C(C)(C)C(N)=O)c4)cc2OCC3)n(C(C)C)n1 [Taselisib] + O=C(Nc1ccc2[nH]nc(-c3ccncc3)c2c1)[C@@H]1CCN(CC(=O)N2CCN(c3ccc(-c4ncccn4)cc3)CC2)C1 [SCH772984] (first compound max 10 µM, 7x7, partner max 5 µM) | -0.0148 | 0.101 | 0.0207 | 0.13 | 0.177 | 0.111 | 0.0712 | 0.122 | 0.0883 | 0.0187 | 0.0674 | -0.0711 | 0.0833 |
